Results published in patent publication US20220162191A1, “SMALL MOLECULE MODULATORS OF IL-17” (LEO PHARMA A/S, priority 2019, published 2022).

Each compound was assayed against T1, human IL-17AA (Homo sapiens, UniProt Q16552) (assay: IL-8 release assay in human epithelial keratinocytes adult (HEKa)). Conditions: 3 ng/ml human IL-17AA + 10 ng/ml human TNFalpha, 68-72 h, IL-8 by HTRF, read-out: Rel EC50 L-8 release assay.
T1 construct: host or cells: HEK (human embryonic kidney) cells
T1 sequence (Q16552 24-155) 1: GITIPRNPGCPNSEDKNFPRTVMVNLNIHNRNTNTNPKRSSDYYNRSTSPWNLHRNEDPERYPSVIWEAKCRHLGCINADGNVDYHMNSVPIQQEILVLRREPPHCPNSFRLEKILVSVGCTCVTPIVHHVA
T1 sequence (Q16552 24-155) 2: T1 sequence (Q16552 24-155) 1
Assay type: cell-based
Method in brief: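 IL-8 secretion, quantified by HTRF (665/620 nm) as percent of controls, served as the readout after 68–72 h culture of HEKa cells with compound plus IL-17AA (3 ng/ml final) and TNF-alpha (10 ng/ml final). Four-parameter logistic curves gave relative IC50 and Emax.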

EC50 | Structure (SMILES)
0.1 to 1 µM | Cc1cnn(C)c1-c1ccc(NC(=O)[C@@H](NC(=O)c2ccnn2C)[C@@H]2CCc3ccc(-c4cc(N5C[C@@H]6C[C@H]5CO6)ncn4)cc32)cc1 [Example 386, N-[(1S)-2-[4-(2,4-dimethylpyrazol-3-yl)anilino]-1-[(1R)-6-[6-[(1S,4S)-2-oxa-5-azabicyclo[2.2.1]heptan-5-yl]pyrimidin-4-yl]indan-1-yl]-2-oxo-ethyl]-2-methyl-pyrazole-3-carboxamide]
< 0.1 µM | Cc1n[nH]c(C)c1-c1ccc(NC(=O)[C@@H](NC(=O)c2ccnn2C)[C@@H]2CCCc3ccc(-c4ccc5c(c4)CCNC5)cc32)cc1 [Example 38, N-[(1S)-2-[4-(3,5-dimethyl-1H-pyrazol-4-yl)anilino]-2-oxo-1-[(1R)-7-(1,2,3,4-tetrahydroisoquinolin-6-yl)tetralin-1-yl]ethyl]-2-methyl-pyrazole-3-carboxamide]
0.1 to 1 µM | COCCOCCn1cc(-c2cccc(-c3ccc(Cl)c(CC(NC(=O)c4ccnn4C)C(=O)Nc4ccc(-c5c(C)n[nH]c5C)cc4)c3)c2)nn1 (stereo not drawn) [Example 312, N-[1-[[2-chloro-5-[3-[1-[2-(2-methoxyethoxy)ethyl]triazol-4-yl]phenyl]phenyl]methyl]-2-[4-(3,5-dimethyl-1H-pyrazol-4-yl)anilino]-2-oxo-ethyl]-2-methyl-pyrazole-3-carboxamide]
0.1 to 1 µM | Cn1cncc1-c1ccc(NC(=O)[C@H](Cc2cc(-c3ccnc(C(O)C4CC4)c3)ccc2Cl)NC(=O)c2ccnn2C)cc1 (stereo partly drawn) [Example 140, N-[(1S)-1-[[2-chloro-5-[2-[cyclopropyl(hydroxy)methyl]-4-pyridyl]phenyl]methyl]-2-[4-(3-methylimidazol-4-yl)anilino]-2-oxo-ethyl]-2-methyl-pyrazole-3-carboxamide]
< 0.1 µM | C[C@@H]1CNCCN1c1cc(-c2ccc(Cl)c(C[C@H](NC(=O)c3ccnn3C)C(=O)Nc3ccc(-c4cncn4C)cc3)c2)ccn1 [Example 207, N-[(1S)-1-[[2-chloro-5-[2-[(2R)-2-methylpiperazin-1-yl]-4-pyridyl]phenyl]methyl]-2-[4-(3-methylimidazol-4-yl)anilino]-2-oxo-ethyl]-2-methyl-pyrazole-3-carboxamide]
0.1 to 1 µM | Cc1n[nH]c(C)c1-c1ccc(NC(=O)[C@@H](NC(=O)C2(F)CC2)[C@@H]2CCc3ccc(-n4cnc(C(C)C)c4)cc32)cc1 [Example 360, N-[(1S)-2-[4-(3,5-dimethyl-1H-pyrazol-4-yl)anilino]-1-[(1R)-6-(4-isopropylimidazol-1-yl)indan-1-yl]-2-oxo-ethyl]-1-fluoro-cyclopropanecarboxamide]
0.1 to 1 µM | Cc1n[nH]c(C)c1-c1ccc(NC(=O)[C@@H](NC(=O)C2(F)CC2)[C@@H]2CCc3ccc(-c4cc(N5CC(F)C5)ncn4)cc32)cc1 [Example 376, N-[(1S)-2-[4-(3,5-dimethyl-1H-pyrazol-4-yl)anilino]-1-[(1R)-6-[6-(3-fluoroazetidin-1-yl)pyrimidin-4-yl]indan-1-yl]-2-oxo-ethyl]-1-fluoro-cyclopropanecarboxamide]
0.1 to 1 µM | CC(C)n1cc(-c2ccc(Cl)c(C[C@H](NC(=O)c3ccnn3C)C(=O)Nc3ccc(-c4cn[nH]c4)c(F)c3)c2)ccc1=O [Example 138, N-[(1S)-1-[[2-chloro-5-(1-isopropyl-6-oxo-3-pyridyl)phenyl]methyl]-2-[3-fluoro-4-(1H-pyrazol-4-yl)anilino]-2-oxo-ethyl]-2-methyl-pyrazole-3-carboxamide]
> 1 µM | Cc1cnn(C)c1-c1ccc(NC(=O)[C@@H](NC(=O)C2(F)CC2)[C@H](C)c2cccc(-c3cc(N4C[C@@H]5C[C@H]4CO5)ncn3)c2)cc1 [Example 342, N-[(1S,2R)-1-[[4-(2,4-dimethylpyrazol-3-yl)phenyl]carbamoyl]-2-[3-[6-[(1S,4S)-2-oxa-5-azabicyclo[2.2.1]heptan-5-yl]pyrimidin-4-yl]phenyl]propyl]-1-fluoro-cyclopropanecarboxamide]
< 0.1 µM | Cc1cc(-c2ccc3c(c2)[C@H]([C@H](NC(=O)C2(F)CC2)C(=O)Nc2ccc(-c4c(C)n[nH]c4C)cc2)CC3)nc(N2C[C@@H]3C[C@H]2CO3)n1 [Example 370, N-[(1S)-2-[4-(3,5-dimethyl-1H-pyrazol-4-yl)anilino]-1-[(1R)-6-[6-methyl-2-[(1S,4S)-2-oxa-5-azabicyclo[2.2.1]heptan-5-yl]pyrimidin-4-yl]indan-1-yl]-2-oxo-ethyl]-1-fluoro-cyclopropanecarboxamide]
0.1 to 1 µM | Cc1cnn(C)c1-c1ccc(NC(=O)[C@H](Cc2cc(-c3ccc(=O)n(C(C)C)c3)ccc2Cl)NC(=O)C2CC2)cc1 [Example 329, N-[(1S)-1-[[2-chloro-5-(1-isopropyl-6-oxo-3-pyridyl)phenyl]methyl]-2-[4-(2,4-dimethylpyrazol-3-yl)anilino]-2-oxo-ethyl]cyclopropanecarboxamide]
< 0.1 µM | Cc1n[nH]cc1-c1ccc(NC(=O)[C@H](Cc2cc(-c3ccc(=O)n(C(C)C)c3)ccc2Cl)NC(=O)c2ccnn2C)cc1O [Example 174, N-[(1S)-1-[[2-chloro-5-(1-isopropyl-6-oxo-3-pyridyl)phenyl]methyl]-2-[3-hydroxy-4-(3-methyl-1H-pyrazol-4-yl)anilino]-2-oxo-ethyl]-2-methyl-pyrazole-3-carboxamide]
> 1 µM | CC(C)n1cc(-c2ccc(Cl)c(CC(NC(=O)c3ccnn3C)C(=O)Nc3ccc(-c4nn[nH]n4)cc3)c2)ccc1=O (stereo not drawn) [Example 66, N-[1-[[2-chloro-5-(1-isopropyl-6-oxo-3-pyridyl)phenyl]methyl]-2-oxo-2-[4-(2H-tetrazol-5-yl)anilino]ethyl]-2-methyl-pyrazole-3-carboxamide]
0.1 to 1 µM | Cc1ncn(C)c1-c1ccc(NC(=O)[C@H](Cc2cc(-c3ccc(=O)n(C(C)C)c3)ccc2Cl)NC(=O)OC2CC2)cc1 [Example 201, cyclopropyl N-[(1S)-1-[[2-chloro-5-(1-isopropyl-6-oxo-3-pyridyl)phenyl]methyl]-2-[4-(3,5-dimethylimidazol-4-yl)anilino]-2-oxo-ethyl]carbamate]
> 1 µM | CC(C)n1cc(-c2ccc(Cl)c(C[C@H](NC(=O)C(C)(C)F)C(=O)Nc3ccc(-c4nncn4C)cc3)c2)ccc1=O [Example 282, N-[(1S)-1-[[2-chloro-5-(1-isopropyl-6-oxo-3-pyridyl)phenyl]methyl]-2-[4-(4-methyl-1,2,4-triazol-3-yl)anilino]-2-oxo-ethyl]-2-fluoro-2-methyl-propanamide]
0.1 to 1 µM | CC(C)n1cc(-c2ccc(Cl)c(CC(NC(=O)OC3CCC3)C(=O)Nc3ccc(-c4nncn4C)cc3)c2)ccc1=O (stereo not drawn) [Example 105, cyclobutyl N-[1-[[2-chloro-5-(1-isopropyl-6-oxo-3-pyridyl)phenyl]methyl]-2-[4-(4-methyl-1,2,4-triazol-3-yl)anilino]-2-oxo-ethyl]carbamate]
0.1 to 1 µM | CC(C)n1cc(-c2cccc(C(c3ccccc3)C(NC(=O)c3ccnn3C)C(=O)Nc3ccc(-c4cncn4C)cc3)c2)ccc1=O (single isomer, unassigned; diastereomer 4) [Example 234, N-[1-[[3-(1-isopropyl-6-oxo-3-pyridyl)phenyl]-phenyl-methyl]-2-[4-(3-methylimidazol-4-yl)anilino]-2-oxo-ethyl]-2-methyl-pyrazole-3-carboxamide (Diastereomer 4)]
0.1 to 1 µM | Cn1cncc1-c1ccc(NC(=O)C(Cc2cc(-c3ccnc(N4CCC4)c3)ccc2Cl)NC(=O)c2ccnn2C)cc1 (stereo not drawn) [Example 149, N-[1-[[5-[2-(azetidin-1-yl)-4-pyridyl]-2-chloro-phenyl]methyl]-2-[4-(3-methylimidazol-4-yl)anilino]-2-oxo-ethyl]-2-methyl-pyrazole-3-carboxamide]
